Columns and labels:
[1] = water solubility; type: physicochemical
[2] = tested on: Aspergillis; conditions: aqueous suspensions; cited from earlier work
[3] = tested on: Candida; conditions: aqueous suspensions; cited from earlier work
[4] = tested on: Cryptococcus; conditions: aqueous suspensions; cited from earlier work

CCC(C(C)O)n1ncn(-c2ccc(N3CCN(c4ccc(OCC5COC(Cn6cncn6)(c6ccc(F)cc6F)C5)cc4)CC3)cc2)c1=O (single isomer, unassigned; (-)) [antifungal compound]
water solubility [1]: extremely low water solubility | antifungal activity against Aspergillis [2]: potent antifungal activity | antifungal activity against Candida [3]: potent antifungal activity | antifungal activity against Cryptococcus [4]: potent antifungal activity
